The values below come from patent US8859584B2, “TRPV1 antagonists” (AbbVie Inc., priority 2011, dated 2014).

Data set [1] concerns the target T1, human TRPV1 (Homo sapiens, UniProt Q8NER1).
T1 construct: expressed in transfected cells
Kind of data set: Capsaicin Activation Assay (FLIPR intracellular Ca2+, recombinant HEK293 cells). The format is cell-based. Conditions: recombinant HEK293 cells expressing hTRPV1; 50 nM capsaicin; read-out: human TRPV1 capsaicin IC50.

Data set [2] concerns the target T1, human TRPV1. Kind of data set: Acid Activation Assay (pH 5.0, FLIPR intracellular Ca2+, recombinant HEK293 cells). The format is cell-based. Conditions: percentage of maximal pH 5.0-induced response remaining; HEK293 hTRPV1; max concentration 37.5 μM. Put shortly: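 HEK293 cells stably expressing recombinant hTRPV1 were loaded with calcium dye for 90-120 min at 25° C and pre-treated with compound for 3 min before a pH 5.0 (DPBS/MES) challenge. Peak FLIPR fluorescence over baseline is given as percentage of the maximal pH 5.0-induced response.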

For data set [3], the system named is rats. Put plainly: Rat Acute Capsaicin-Induced Flinching Behavior. As to conditions: 100 μmol/kg oral, capsaicin 2.5 μg one hour after compound, five minute observation. The format is in vivo. How it is done: (iv) Rat Acute Capsaicin-Induced Flinching Behavior
Rats were placed in individual observation cages. Following an acclimation period of 30 minutes, selected compounds were administered orally at a dose of 100 μmol/kg orally in a vehicle (10% ethanol/20% Tween 80/70% polyethylene glycol-400) at a volume of 2 mL/kg. One hour after administration of the compound, 2.5 μg of capsaicin in a 10 μL solution of 10% ethanol/90% hydroxypropyl-β-cyclodextrin was injected subcutaneously into the dorsal aspect of the right hind paw. The observation cage was then suspended above mirrors in order to facilitate observation. […] The number of flinching behaviors of the injured paw was recorded during the five minute observation period (Gilchrist, H. D.; Allard, B. L.; Simone, D. A.; Enhanced withdrawal responses to heat and mechanical stimuli following intraplantar injection of capsaicin in rats. Pain, 1996, 67, 179-188). The percent reduction in the number of flinching behaviors produced from oral administration of the test compounds relative to control-treated animals (% effect) is reported in Table 2.

Data set [4] has as its system rats. Put plainly: Sodium Iodoacetate-Induced Knee Joint Osteoarthritic Pain Model (hind limb grip force). The data set is classed as in vivo. Conditions: rat, 1 hour after administration, 20 days after sodium iodoacetate, read-out: % effect (% return to normalcy of hind limb grip force); for inhibition in vivo at 100 µmol/kg: 100 μmol/kg po single dose. How it is done:
(v) Sodium Iodoacetate-Induced Knee Joint Osteoarthritic Pain Model
Unilateral knee joint osteoarthritis was induced in the rats by a single intra-articular (i.a.) injection of sodium iodoacetate (3 mg in 0.05 mL sterile isotonic saline) into the right knee joint cavity under light isoflurane anesthesia using a 26G needle. […] Pain behavioral assessment of hind limb grip force was conducted by recording the maximum compressive force exerted on the hind limb strain gauge setup, in a commercially available grip force measurement system (Columbus Instruments, Columbus, Ohio). The grip force data was converted to a maximum hindlimb cumulative compressive force (CFmax) (gram force)/kg body weight for each animal. The analgesic effects of test compounds were determined 20 days following the i.a. injection of sodium iodoacetate. The vehicle control group for each compound being tested was assigned 0% whereas the age matched naïve group was assigned as being 100% (normal). The % effect for each dose group was then expressed as % return to normalcy compared to the naïve group. Test compounds were administered orally in 10% ethanol/20% Tween 80/70% polyethylene glycol-400 vehicle at a volume of 2 mL/kg. The assessment of the analgesic effects of test compounds was made 1 hour following oral administration. The assessment of the analgesic effects of test compounds can be made following a single dose or following repeated administration wherein the frequency of dosing is 1 to 2 times daily. The duration of such repeated daily dosing may last for any time greater than one day. A typical duration of repeated daily dosing is about 5 days to about 12 days.

In data set [5] the test system is rats. Put plainly: Rat Tail Immersion (noxious thermosensation, 55° C. water bath). The format is in vivo. As to conditions: morphine 6 mg/kg i.p. in saline, relative to vehicle control. The method, then: (iii) Rat Tail Immersion Protocol:
Compounds were tested for their effects on noxious thermosensation using the tail immersion assay. Testing was performed one hour following oral administration of 100 μmol/kg of the compound in 10% ethanol/20% Tween-80/70% PEG-400 (2 mL/kg). Mophine (6 mg/kg) was administered interperitoneally (i.p.) using saline (2 mL/kg) as the vehicle. For testing, a circulating water bath was heated to 55° C. Thirty to sixty minutes post dosing, the rats were handled for a few seconds to calm them down and then cupped with their back against the testers hand at a slight angle with head facing away from tester. With rat in one hand and a 0.01 second stopwatch in the other hand, the tail was quickly immersed 6-8 cm in water bath or to a distance leaving 2-3 cm of tail out of water. The timer was started simultaneously. […] This response latency (in seconds) was recorded. Process was repeated 3 times with 3-4 minutes between readings for a final average.
For a given compound, a percent increase in the average response latency (in seconds) for tail withdrawal relative to a vehicle control was determined % increase=[(tc−tv)/tv]×100% tc=response time (in seconds) with oral dosing of compounds tv=response time (in seconds) with oral dosing of vehicle […]
Table 1 reports the % increase in tail withdrawal latency measured for the compounds tested. […]

The structures appear in SMILES notation.

T1 sequence (Q8NER1 whole entry): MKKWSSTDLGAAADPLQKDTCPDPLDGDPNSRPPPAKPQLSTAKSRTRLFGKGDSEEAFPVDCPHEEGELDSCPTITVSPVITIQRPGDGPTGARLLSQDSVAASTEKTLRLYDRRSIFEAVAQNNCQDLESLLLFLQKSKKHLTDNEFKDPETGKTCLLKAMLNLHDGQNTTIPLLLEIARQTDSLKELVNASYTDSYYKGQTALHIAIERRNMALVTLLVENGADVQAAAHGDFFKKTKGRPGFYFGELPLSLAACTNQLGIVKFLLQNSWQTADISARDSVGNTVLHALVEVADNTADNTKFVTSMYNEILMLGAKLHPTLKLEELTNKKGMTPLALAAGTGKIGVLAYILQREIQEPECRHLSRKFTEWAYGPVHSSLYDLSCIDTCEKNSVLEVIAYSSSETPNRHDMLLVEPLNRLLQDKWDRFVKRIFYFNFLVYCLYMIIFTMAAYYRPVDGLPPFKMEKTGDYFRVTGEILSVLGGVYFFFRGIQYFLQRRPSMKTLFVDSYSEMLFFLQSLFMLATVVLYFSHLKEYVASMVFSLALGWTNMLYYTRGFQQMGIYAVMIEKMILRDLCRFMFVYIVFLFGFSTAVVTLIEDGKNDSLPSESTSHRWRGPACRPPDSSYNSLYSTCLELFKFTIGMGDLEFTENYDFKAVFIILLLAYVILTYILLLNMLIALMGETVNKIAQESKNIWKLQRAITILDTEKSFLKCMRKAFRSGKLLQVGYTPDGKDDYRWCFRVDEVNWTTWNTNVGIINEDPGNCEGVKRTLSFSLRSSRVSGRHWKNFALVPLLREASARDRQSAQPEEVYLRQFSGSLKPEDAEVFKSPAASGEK

Regarding `CC1(C)C[C@@H](NC(=O)Nc2cccc3c2C[C@H](O)C3)c2ccc(F)c(Cl)c2O1` [Example 12, 1-[(4R)-8-chloro-7-fluoro-2,2-dimethyl-3,4-dihydro-2H-chromen-4-yl]-3-[(2R)-2-hydroxy-2,3-dihydro-1H-inden-4-yl]urea], the half-maximal inhibitory concentration (IC50) (in general, the point on the concentration scale where inhibition reaches its midpoint) on human TRPV1 [1] was 36 nM. In addition, the “human TRPV1 H+ (max % remain)” value at human TRPV1 [2] is on record as 77%. The “% effect (percent reduction in number of flinching behaviors relative to control-treated animals)” value with rats [3] is on record as 53%.

As to `O=C(Nc1cccc2c1C[C@H](O)C2)N[C@@H]1CC(CF)(CF)Oc2cc(C(F)(F)F)ccc21` [Example 7, 1-[(4R)-2,2-bis(fluoromethyl)-7-(trifluoromethyl)-3,4-dihydro-2H-chromen-4-yl]-3-[(2R)-2-hydroxy-2,3-dihydro-1H-inden-4-yl]urea], the half-maximal inhibitory concentration (IC50) at human TRPV1 [1] was 47 nM. The “human TRPV1 H+ (max % remain)” value on human TRPV1 [2] was found to be 48%. In addition, the inhibition in vivo at 100 µmol/kg in the data set with rats [4] was 68%. Moreover, in the data set on rats [3], the “% effect (percent reduction in number of flinching behaviors relative to control-treated animals)” value came to 94%.

With `CC1(C)C[C@@H](NC(=O)Nc2cccc3c2C[C@@H](O)C3)c2ccc(F)c(Cl)c2O1` [Example 36, 1-[(4R)-8-chloro-7-fluoro-2,2-dimethyl-3,4-dihydro-2H-chromen-4-yl]-3-[(2S)-2-hydroxy-2,3-dihydro-1H-inden-4-yl]urea], the IC50 on human TRPV1 [1] is 26 nM. For the same compound, on human TRPV1 [2], the “human TRPV1 H+ (max % remain)” value worked out at 32%. Moreover, the inhibition in vivo at 100 µmol/kg in the data set with rats [4] was determined as 46%. The “% effect (percent reduction in number of flinching behaviors relative to control-treated animals)” value in the data set with rats [3] is reported as 71%.

As for `O=C(Nc1cccc2c1C[C@H](O)C2)N[C@@H]1CC(CF)(CF)Oc2cc(Cl)ccc21` [Example 4, 1-[(4R)-7-chloro-2,2-bis(fluoromethyl)-3,4-dihydro-2H-chromen-4-yl]-3-[(2R)-2-hydroxy-2,3-dihydro-1H-inden-4-yl]urea], the IC50 at human TRPV1 [1] is 40 nM. Moreover, the “human TRPV1 H+ (max % remain)” value at human TRPV1 [2] came to 57%. For the same compound, the inhibition in vivo at 100 µmol/kg with rats [4] was 67%. In the data set on rats [3], the “% effect (percent reduction in number of flinching behaviors relative to control-treated animals)” value is on record as 54%.

`CC1(C)C[C@@H](NC(=O)Nc2cccc3c2C[C@H](O)C3)c2ccc(F)c(F)c2O1` [Example 9, 1-[(4R)-7,8-difluoro-2,2-dimethyl-3,4-dihydro-2H-chromen-4-yl]-3-[(2R)-2-hydroxy-2,3-dihydro-1H-inden-4-yl]urea]: the IC50 at human TRPV1 [1] came to 60 nM. For the same compound, on human TRPV1 [2], the “human TRPV1 H+ (max % remain)” value is 82%. In addition, in the data set on rats [4], the inhibition in vivo at 100 µmol/kg was found to be 67%. Moreover, in the data set with rats [3], the “% effect (percent reduction in number of flinching behaviors relative to control-treated animals)” value is 76%.

Regarding `CC1(C)C[C@@H](NC(=O)Nc2cccc3c2C[C@@H](O)C3)c2cccc(OC(F)(F)F)c2O1` [Example 88, 1-[(4R)-2,2-dimethyl-8-(trifluoromethoxy)-3,4-dihydro-2H-chromen-4-yl]-3-[(2S)-2-hydroxy-2,3-dihydro-1H-inden-4-yl]urea], the IC50 on human TRPV1 [1] is 16 nM. The “human TRPV1 H+ (max % remain)” value on human TRPV1 [2] came out at 23%. The “% effect (percent reduction in number of flinching behaviors relative to control-treated animals)” value with rats [3] is on record as 69%.

As to `CN1CC[C@]23c4c5ccc(O)c4O[C@H]2[C@@H](O)C=C[C@H]3[C@H]1C5` [Morphine], the “% Increase in Tail Withdrawal Latency” value in the data set with rats [5] was “+++ (greater than or equal to 25% increase)”.

For the compound `CC1(C)C[C@@H](NC(=O)Nc2cccc3c2C[C@H](O)C3)c2ccc(Cl)c(F)c2O1` [Example 10, 1-[(4R)-7-chloro-8-fluoro-2,2-dimethyl-3,4-dihydro-2H-chromen-4-yl]-3-[(2R)-2-hydroxy-2,3-dihydro-1H-inden-4-yl]urea], the IC50 at human TRPV1 [1] was found to be 27 nM. Besides, the “human TRPV1 H+ (max % remain)” value on human TRPV1 [2] is recorded as 74%. In the data set on rats [4] (17 μmol/kg po single dose), the inhibition in vivo at 17 µmol/kg worked out at 49%.
